Paper PMC3402541, “Guanidylation and Tail Effects in Cationic Antimicrobial Lipopeptoids” (PLoS ONE, 2012)
Where a SMILES comes first, the peptide text is derived from it. [ ]: non-standard residue; d: D form. The star is where a group is joined. Undecanoyl = CCCCCCCCCCC(=O)*; Nlys = NCCCCNCC(=O)O

How the values were obtained:
[1] = tested on: S. maltophilia CAN-ICU 62584; format: cell-based, Stenotrophomonas maltophilia; settings: CAN-ICU 62584, 24 h
How it was run: (§1)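 Lipopeptoids, from stocks at 512 µg/mL in water (DMSO where needed), were serially doubled in cation-adjusted Mueller-Hinton broth and inoculated to approximately 5 x 10^5 CFU/mL. MIC read after 24 hr at 37°C.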

[2] = tested on: P.aeruginosa CAN-ICU 62308; format: cell-based, Pseudomonas aeruginosa; settings: CAN-ICU 62308, 24 h
How it was run: as §1

P.aeruginosa ATCC 27853 = format: cell-based, Pseudomonas aeruginosa; settings: ATCC 27853, 24 h
How it was run: as §1

K.pneumoniae ATCC 13883 = format: cell-based, Klebsiella pneumoniae; settings: ATCC 13883, 24 h
How it was run: as §1

E. faecalis ATCC 29212 = format: cell-based, Enterococcus faecalis; settings: ATCC 29212, 24 h
How it was run: as §1

MRSE CAN-ICU 61589 = format: cell-based, methicillin-resistant S. epidermidis; settings: CAN-ICU 61589, 24 h
How it was run: as §1

MSSE 81388 CANWARD 2008 = format: cell-based, methicillin-susceptible S. epidermidis; settings: 24 h
How it was run: as §1

E. faecium ATCC 27270 = format: cell-based; settings: ATCC 27270, 24 h
How it was run: as §1

S.pneumoniae ATCC 49619 = format: cell-based, Streptococcus pneumoniae; settings: ATCC 49619, 24 h
How it was run: as §1

MRSA ATCC 33592 = format: cell-based, methicillin-resistant S. aureus; settings: ATCC 33592, 24 h
How it was run: as §1

ovine erythrocytes = experiment: Haemolytic assay; format: cell-based, sheep; settings: ovine erythrocytes in Tris buffered saline, 30 minutes, absorbance of supernatant at 540 nm
How it was run: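 Washed sheep erythrocytes in Tris-buffered saline exposed to compound (50 μg/mL–1 mg/mL; final 4.08 x 10^8 cells/mL) for 30 min. After centrifugation, supernatant absorbance at 540 nm gave % haemolysis; 0.5% ammonium chloride as positive control.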

[3] = tested on: panel of clinically relevant and laboratory reference bacteria; experiment: Antimicrobial activity over the whole bacterial panel; format: cell-based; settings: Gram positive and Gram negative strains, no BSA
Description: Antimicrobial activity of the purified lipopeptoids was determined without replication against a panel of clinically relevant and standard reference bacterial strains according to CLSI macrobroth standards. Stock solutions at 512 µg/mL were prepared in water, with DMSO as needed, and testing was performed in glass test tubes using Muller-Hinton broth and bacteria adjusted to 5 × 10^5 CFU/mL. Bacteria were incubated with the lipopeptoid of interest for 24 hr at 37°C prior to reading. […]
After subculturing the relevant bacteria twice from frozen stock, in vitro activities of the antimicrobials were determined by macrobroth dilution methodology in accordance with the Clinical and Laboratory Standards Institute (CLSI) guidelines (3). The MICs were determined using glass test tubes (2 mL/tube) containing doubling antimicrobial dilutions of cation adjusted Mueller-Hinton broth inoculated to achieve a final concentration of approximately 5 x 10^5 CFU/mL, incubated in ambient air for 24 hr prior to reading. […]

[4] = tested on: A. baumannii CAN-ICU 63169; format: cell-based, Acinetobacter baumannii; settings: CAN-ICU 63169, 24 h
How it was run: as §1

E.coli CAN-ICU 61714 = format: cell-based, Escherichia coli; settings: CAN-ICU 61714, 24 h
How it was run: as §1

E.coli CAN-ICU 63074 = format: cell-based, Escherichia coli; settings: CAN-ICU 63074, 24 h
How it was run: as §1

E.coli ATCC 25922 = format: cell-based, Escherichia coli; settings: ATCC 25922, 24 h
How it was run: as §1

S.aureus ATCC 29213 = format: cell-based, Staphylococcus aureus; settings: ATCC 29213, 24 h
How it was run: as §1

CCCCCCCCCCC(=O)N(CCCCN)CC(=O)NCC(=O)N(CCCCN)CC(N)=O [C11-NlysGNlys] (Undecanoyl-[Nlys]-Gly-[Nlys]-NH2)
1.34%: Percent haemolysis at 100µg/mL of compound (ovine erythrocytes)
broadly inactive: Antimicrobial activity over the panel (in words) [3]
512 µg/mL: MIC E. faecalis (E. faecalis ATCC 29212) | MIC MRSE in the presence of 4% bovine serum albumin (MRSE CAN-ICU 61589) | MIC MSSE in the presence of 4% bovine serum albumin (MSSE 81388 CANWARD 2008) | MIC E. faecium (E. faecium ATCC 27270) | MIC S.pneumoniae (S.pneumoniae ATCC 49619) | MIC S.pneumoniae in the presence of 4% bovine serum albumin (S.pneumoniae ATCC 49619) | MIC MRSA (MRSA ATCC 33592) | MIC S.aureus (S.aureus ATCC 29213)
>512 µg/mL: MIC S. maltophilia [1] | MIC S. maltophilia in the presence of 4% bovine serum albumin [1] | MIC P.aeruginosa [2] | MIC P.aeruginosa in the presence of 4% bovine serum albumin [2] | MIC P.aeruginosa (P.aeruginosa ATCC 27853) | MIC P.aeruginosa in the presence of 4% bovine serum albumin (P.aeruginosa ATCC 27853) | MIC K.pneumoniae (K.pneumoniae ATCC 13883) | MIC K.pneumoniae in the presence of 4% bovine serum albumin (K.pneumoniae ATCC 13883) | MIC E. faecalis in the presence of 4% bovine serum albumin (E. faecalis ATCC 29212) | MIC E. faecium in the presence of 4% bovine serum albumin (E. faecium ATCC 27270) | MIC MRSA in the presence of 4% bovine serum albumin (MRSA ATCC 33592) | MIC A. baumannii [4] | MIC A. baumannii in the presence of 4% bovine serum albumin [4] | MIC E.coli (E.coli CAN-ICU 61714) | MIC E.coli in the presence of 4% bovine serum albumin (E.coli CAN-ICU 61714) | MIC E.coli (E.coli CAN-ICU 63074) | MIC E.coli in the presence of 4% bovine serum albumin (E.coli CAN-ICU 63074) | MIC E.coli (E.coli ATCC 25922) | MIC E.coli in the presence of 4% bovine serum albumin (E.coli ATCC 25922) | MIC S.aureus in the presence of 4% bovine serum albumin (S.aureus ATCC 29213)
256 µg/mL: MIC MRSE (MRSE CAN-ICU 61589) | MIC MSSE (MSSE 81388 CANWARD 2008)

CCCCCCCCCCC(=O)N(CCCCN)CC(=O)N(CCCCN)CC(=O)N(CCCCN)CC(N)=O [C11-NlysNlysNlys]
>512 µg/mL: MIC S. maltophilia [1] | MIC S. maltophilia in the presence of 4% bovine serum albumin [1] | MIC P.aeruginosa [2] | MIC P.aeruginosa in the presence of 4% bovine serum albumin [2] | MIC P.aeruginosa (P.aeruginosa ATCC 27853) | MIC P.aeruginosa in the presence of 4% bovine serum albumin (P.aeruginosa ATCC 27853) | MIC K.pneumoniae (K.pneumoniae ATCC 13883) | MIC K.pneumoniae in the presence of 4% bovine serum albumin (K.pneumoniae ATCC 13883) | MIC E. faecalis in the presence of 4% bovine serum albumin (E. faecalis ATCC 29212) | MIC S.pneumoniae (S.pneumoniae ATCC 49619) | MIC S.pneumoniae in the presence of 4% bovine serum albumin (S.pneumoniae ATCC 49619) | MIC MRSA in the presence of 4% bovine serum albumin (MRSA ATCC 33592) | MIC A. baumannii [4] | MIC A. baumannii in the presence of 4% bovine serum albumin [4] | MIC E.coli (E.coli CAN-ICU 61714) | MIC E.coli in the presence of 4% bovine serum albumin (E.coli CAN-ICU 61714) | MIC E.coli (E.coli CAN-ICU 63074) | MIC E.coli in the presence of 4% bovine serum albumin (E.coli CAN-ICU 63074) | MIC E.coli (E.coli ATCC 25922) | MIC E.coli in the presence of 4% bovine serum albumin (E.coli ATCC 25922) | MIC S.aureus in the presence of 4% bovine serum albumin (S.aureus ATCC 29213)
0.67%: Percent haemolysis at 100µg/mL of compound (ovine erythrocytes)
512 µg/mL: MIC E. faecalis (E. faecalis ATCC 29212) | MIC MRSE (MRSE CAN-ICU 61589) | MIC MRSE in the presence of 4% bovine serum albumin (MRSE CAN-ICU 61589) | MIC MSSE (MSSE 81388 CANWARD 2008) | MIC MSSE in the presence of 4% bovine serum albumin (MSSE 81388 CANWARD 2008) | MIC E. faecium in the presence of 4% bovine serum albumin (E. faecium ATCC 27270) | MIC MRSA (MRSA ATCC 33592) | MIC S.aureus (S.aureus ATCC 29213)
256 µg/mL: MIC E. faecium (E. faecium ATCC 27270)
broadly inactive: Antimicrobial activity over the panel (in words) [3]

CCCCCCCCCCCCCC(=O)N(CCCCNC(=N)N)CC(=O)NCC(=O)N(CCCCNC(=N)N)CC(N)=O [C14-NhargGNharg]
>512 µg/mL: MIC S. maltophilia in the presence of 4% bovine serum albumin [1] | MIC P.aeruginosa in the presence of 4% bovine serum albumin [2] | MIC P.aeruginosa in the presence of 4% bovine serum albumin (P.aeruginosa ATCC 27853) | MIC K.pneumoniae in the presence of 4% bovine serum albumin (K.pneumoniae ATCC 13883) | MIC A. baumannii in the presence of 4% bovine serum albumin [4] | MIC E.coli in the presence of 4% bovine serum albumin (E.coli CAN-ICU 61714) | MIC E.coli in the presence of 4% bovine serum albumin (E.coli CAN-ICU 63074)
128 µg/mL: MIC P.aeruginosa [2] | MIC S.pneumoniae (S.pneumoniae ATCC 49619)
512 µg/mL: MIC E. faecalis in the presence of 4% bovine serum albumin (E. faecalis ATCC 29212) | MIC MRSE in the presence of 4% bovine serum albumin (MRSE CAN-ICU 61589) | MIC MSSE in the presence of 4% bovine serum albumin (MSSE 81388 CANWARD 2008) | MIC E. faecium in the presence of 4% bovine serum albumin (E. faecium ATCC 27270) | MIC S.pneumoniae in the presence of 4% bovine serum albumin (S.pneumoniae ATCC 49619) | MIC MRSA in the presence of 4% bovine serum albumin (MRSA ATCC 33592) | MIC A. baumannii [4] | MIC E.coli in the presence of 4% bovine serum albumin (E.coli ATCC 25922) | MIC S.aureus in the presence of 4% bovine serum albumin (S.aureus ATCC 29213)
8 µg/mL: MIC MSSE (MSSE 81388 CANWARD 2008)
55.44%: Percent haemolysis at 100µg/mL of compound (ovine erythrocytes)
32 µg/mL: MIC E. faecalis (E. faecalis ATCC 29212) | MIC E. faecium (E. faecium ATCC 27270) | MIC E.coli (E.coli ATCC 25922)
256 µg/mL: MIC S. maltophilia [1] | MIC K.pneumoniae (K.pneumoniae ATCC 13883)
16 µg/mL: MIC MRSE (MRSE CAN-ICU 61589) | MIC MRSA (MRSA ATCC 33592) | MIC S.aureus (S.aureus ATCC 29213)
64 µg/mL: MIC P.aeruginosa (P.aeruginosa ATCC 27853) | MIC E.coli (E.coli CAN-ICU 61714) | MIC E.coli (E.coli CAN-ICU 63074)
